From patent US12282013B2, “Ex vivo methods of screening for, and characterizing, cardiac therapeutics using preloaded cardiac tissues” (NOVOHEART INTERNATIONAL LIMITED, priority 2018, dated 2025)

Assays:
[1] = test system: human ventricular cardiac organoid chamber (hvCOC); assay: hvCOC pressure-volume / developed pressure assay with preload; assay type: cell-based; conditions: for area in the pressure-volume loops: absence of preload
Procedure: The hvCOC was made by a similar approach: Ten million hESC-vCMs and 1 million human foreskin fibroblasts were mixed with 1650 μl collagen gel (same relative composition as described above for hvCTS). The mixture was then cast into a 13-mm diameter cavity in a 2% agarose gel. A modified 6-Fr silicone balloon Foley catheter (Cook Medical) was then inflated and placed into the center of the bioreactor to form the inner boundary of the hvCOC. An 8 mm porous polyethylene ring (Fisher Scientific) and a 6 mm rubber ring were placed on top of the catheter to provide an hvCOC anchor. The polyethylene ring, rubber ring and the catheter were held by a metal tube with 3.9 mm outer diameter. The cell mixture was allowed to solidify for 2 hours in a 37° C., 5% CO2 incubator. Then, the solidified cell mixture was fed with 7 ml DMEM medium (high glucose) supplemented with 10% newborn calf serum. After 24 hours, the medium was aspirated and the agarose gel was removed. Twenty ml of medium was replenished and half of the medium was changed every 2 days. Further description of the hvCOC is provided in Example 5.
Human ventricular Cardiac Organoid Chamber (hvCOC) behavior was measured on day 10 post-fabrication. First, the catheter was deflated and removed. Then, the culture medium was replaced by phenol red-free DMEM (with 25 mM glucose and 25 mM HEPES). Rubber tubing was then filled with medium and used to connect the metal tube of the hvCOC apparatus to a medium tank. The hvCOC was electrically paced at 1.5 Hz (5V/cm) and the pressure-volume change resulting from the paced contractions was recorded for 30 seconds. Pressure was measured by a pressure sensor (Millar) placed inside the hvCOC, and associated area change of the hvCOC was captured by high-speed camera (Allied Vision). The medium tank level was then adjusted from 0 mm (relative to medium level of that in the hvCOC bioreactor), to 2.5, 5 and 7.5 mm above the medium level (representing 0, 2.5, 5 and 7.5 mm H2O preload). The measurements at all 4 preloads (0, 2.5, 5 and 7.5 mm H2O) were then repeated at each dose (0.01 and 0.1 μM) of levosimendan after a 5-minute incubation period.

[2] = test system: human ventricular cardiac tissue strip (hvCTS); assay: hvCTS contractile force assay, unstretched, 1-Hz pacing; assay type: cell-based; conditions: hvCTS paced at 1 Hz, increasing concentrations, responses described as blunted
Procedure: Seventy-two hours after dissociation, the hvCTS was made by mixing 1.3 million hESC-vCMs and 0.13 million human foreskin fibroblasts, together with 110 μl collagen gel comprising 1.67 mg/ml collagen and […] Matrigel. The cell mixture was then cast into a PDMS mold with two pillars and allowed to solidify for 2 hours in a 37° C., 5% CO2 incubator. Then, the cell mixture was fed with 7 ml DMEM medium (high glucose) supplemented with 10% newborn calf serum. Half of the medium was changed every 2 days.
On day 17 post-fabrication, human ventricular Cardiac Tissue Strips (hvCTS) were transferred from their molds and hooked to the force transducer unit and motor unit of an isolated muscle bath system (Aurora Scientific). The length of the hooked tissue was then adjusted to reach minimal developed tension, which was defined as the original length (Lo, or 0% Lmax) of the tissue. The hvCTS was then incubated in the bath at 37° C. for 10 minutes. Next, the hvCTS was electrically paced (at 5V/cm) at 1 Hz frequency, and stretched from 0 to 50% strain in 2.5% increments every 20 seconds. Recordings were made using Dynamic Muscle Control software (Aurora Scientific). The contractile parameters at each % strain, such as developed force, contractile rate and relaxation rate, were analyzed by Clampfit (Molecular Devices). The length with the maximum developed force was defined as Lmax. […]

| Compound | area in the pressure-volume loops ([1]; hvCOC) | contractile force [2] | increase in developed pressure ([1]; hvCOC, 5 mmH2O preload, 0.1 μM) | developed pressure, dose dependence ([1]; hvCOC, 7.5 mmH2O preload) | developed pressure ([1]; hvCOC, no preload (0 mmH2O), 1 μM) | response of hvCOC (developed pressure) ([1]; preload increased to 2.5 or 5 mmH2O) |
| --- | --- | --- | --- | --- | --- | --- |
| CC(C)NCC(O)c1ccc(O)c(O)c1 (centres unmarked) [isoproterenol] | increase in area in the pressure-volume loops | trend of increasing contractile force |  |  |  |  |
| C[C@@H]1CC(=O)NN=C1c1ccc(NN=C(C#N)C#N)cc1 [levosimendan] | increase in area in the pressure-volume loops | trend of increasing contractile force | approximately 50% | did not show any significant dose-dependent increase | no increase in developed pressure | greatly enhanced the response |
